# Data taken from ChEMBL document CHEMBL1131565, “Aminopyrimidines with high affinity for both serotonin and dopamine receptors” (J Med Chem, 1998).
# pEC50, pIC50, pKi: −log10 of the molar value.
# Assays:
# D(2) dopamine receptor [1] = molecular target: T1, D(2) dopamine receptor (Homo sapiens, UniProt P14416); test: biochemical
# Description: Binding affinity determined by measuring its ability to displace [3H]N-0437 radioligand in CHO-K1 cells on Cloned Human Dopamine receptor D2
# D(3) dopamine receptor = D(3) dopamine receptor (Homo sapiens, UniProt P35462); test: biochemical
# Description: Binding affinity determined by measuring displacement of [3H]spiperone from cloned Human Dopamine receptor D3 in CHO-K1 cells
# [2] = molecular target: T2, 5-hydroxytryptamine receptor 1A (Rattus norvegicus, UniProt P19327); test: The binding affinity by measuring its ability to displace [3H]8-OH-DPAT radioligand in 5-hydroxytryptamine 1A receptor on rat hippocampal preparation; format: tissue-based, Hippocampus
# T2 sequence (P19327 whole entry): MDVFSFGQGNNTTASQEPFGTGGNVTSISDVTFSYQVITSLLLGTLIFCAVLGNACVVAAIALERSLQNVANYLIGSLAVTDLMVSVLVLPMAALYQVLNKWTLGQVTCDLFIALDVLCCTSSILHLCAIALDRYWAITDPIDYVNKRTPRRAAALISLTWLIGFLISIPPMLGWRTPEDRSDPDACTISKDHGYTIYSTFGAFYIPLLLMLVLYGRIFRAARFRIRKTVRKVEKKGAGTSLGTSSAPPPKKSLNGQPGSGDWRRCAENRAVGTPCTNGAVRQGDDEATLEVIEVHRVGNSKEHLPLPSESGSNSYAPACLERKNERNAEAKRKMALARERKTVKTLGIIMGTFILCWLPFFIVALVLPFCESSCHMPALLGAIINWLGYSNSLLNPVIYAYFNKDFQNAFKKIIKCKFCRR
# D(2) dopamine receptor [3] = molecular target: T1, D(2) dopamine receptor; test: The in vitro intrinsic activity was measured at DA D2 receptor by measuring its ability to increase [3H]thymidine uptake in CHO-K1 cells transfected with the Dopamine receptor D2; format: cell-based
# Rattus norvegicus [4] = test: In vivo DA D2 activity determined by measuring effects on DA synthesis by observing the changes in accumulation of (DOPA) after administration of a 10 mg/kg ip; format: functional; settings: route intraperitoneal
# D(2) dopamine receptor [5] = molecular target: T1, D(2) dopamine receptor; test: Percentage intrinsic activity measured at DA D2 receptor by measuring its ability to […] [3H]-thymidine uptake in CHO-K1 cells transfected with the Dopamine receptor D2; format: cell-based
# [6] = molecular target: 5-hydroxytryptamine receptor 1A (Rattus norvegicus) (UniProt P19327); test: Intrinsic agonist activity at 5-HT1A receptors was measured in vivo by measuring changes in 5-HT levels after administration of compound by observing accumulation of the 5-HT […] 5-hydroxytryptophan (5-HTP) after administration of a 10 mg/k g ip
# Rattus norvegicus [7] = test: In vivo DA d2 activity determined by measuring effects on DA synthesis by observing the changes in accumulation of (DOPA) after administration of a 10 mg/kg ip; format: functional; settings: route intraperitoneal
# Rattus norvegicus [8] = test: The % decrease of rat striatal 5-HIAA overflow at the dose of 10 mg/kg through ip.; format: functional
# Mus musculus = test: The inhibited exploratory locomotor activity of compound in mice after ip administration; format: functional
# [9] = The inhibition of Sidman avoidance responding of compound in squirrel monkeys after oral administration
# Rattus norvegicus [10] = test: The inhibited exploratory locomotor activity of compound in rat after oral administration; format: functional
# Rattus norvegicus [11] = test: The % decrease of rat striatal dopamine overflow at the dose of 10 mg/kg through ip.; format: functional
# D(3) dopamine receptor, sequence (P35462 whole entry): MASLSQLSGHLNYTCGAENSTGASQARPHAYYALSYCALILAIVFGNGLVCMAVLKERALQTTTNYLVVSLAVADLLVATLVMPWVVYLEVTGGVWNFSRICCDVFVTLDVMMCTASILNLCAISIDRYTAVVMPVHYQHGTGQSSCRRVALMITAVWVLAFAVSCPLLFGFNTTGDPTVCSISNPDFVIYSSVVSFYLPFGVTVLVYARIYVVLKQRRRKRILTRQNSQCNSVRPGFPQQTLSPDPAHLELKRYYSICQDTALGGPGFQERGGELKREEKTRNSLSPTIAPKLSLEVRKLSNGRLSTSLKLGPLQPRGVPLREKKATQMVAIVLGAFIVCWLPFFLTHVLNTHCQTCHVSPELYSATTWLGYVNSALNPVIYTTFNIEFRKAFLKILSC
# T1 sequence (P14416 whole entry): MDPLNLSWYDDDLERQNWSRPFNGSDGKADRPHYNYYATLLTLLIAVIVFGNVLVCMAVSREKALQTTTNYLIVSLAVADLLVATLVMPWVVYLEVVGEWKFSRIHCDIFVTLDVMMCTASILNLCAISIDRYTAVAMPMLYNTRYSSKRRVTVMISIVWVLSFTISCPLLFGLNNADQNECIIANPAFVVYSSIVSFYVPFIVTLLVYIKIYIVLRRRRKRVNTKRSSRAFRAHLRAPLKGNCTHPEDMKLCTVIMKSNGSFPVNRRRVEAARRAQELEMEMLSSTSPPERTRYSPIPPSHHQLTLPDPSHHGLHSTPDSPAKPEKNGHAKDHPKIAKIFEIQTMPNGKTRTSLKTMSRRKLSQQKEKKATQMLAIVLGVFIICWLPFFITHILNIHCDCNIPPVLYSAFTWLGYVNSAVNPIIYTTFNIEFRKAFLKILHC
pKi (D(2) dopamine receptor [1]),pKi (D(3) dopamine receptor),pKi [2],SMILES,other results
6.62,6.23,8.07,c1cnc(N[C@H]2CC[C@H](CCN3CCN(c4ncccn4)CC3)CC2)nc1,
,,7.24,O=C(N[C@H]1CC[C@H](CCN2CCN(c3ccccc3)CC2)CC1)c1cccs1,
6.49,6.21,7.08,c1ccc(N2CCN(C3CCC(Nc4ncccn4)CC3)CC2)cc1 (stereo in doubt; 20),
8.07,7.32,8.35,Fc1ccc(N2CCN(CC[C@H]3CC[C@H](Nc4ncccn4)CC3)CC2)cc1,Control (Rattus norvegicus [7]): 142%; pIC50 (D(2) dopamine receptor [3]): 7.10; Intrinsic activity (D(2) dopamine receptor [5]): 5%; Control [6]: 143%
5.32,5.64,6.14,c1cnc(N[C@H]2CC[C@H](CCN3CCN(c4ccncc4)CC3)CC2)nc1,
8.32,7.62,8.33,CN(c1ncccn1)[C@H]1CC[C@H](CCN2CCN(c3ccccc3)CC2)CC1,
7.41,,7.04,CN(CCc1ccccc1)CC[C@H]1CC[C@H](Nc2ncccn2)CC1,
6.74,6.68,7.54,c1cnc(N[C@H]2CC[C@H](CCN3CCN(c4cnccn4)CC3)CC2)nc1,
6.96,7.40,7.36,c1cnc(N[C@H]2CC[C@H](CCN3CCc4ccccc4C3)CC2)nc1,
8.24,7.05,7.39,c1ccc(N2CCN(C[C@H]3CC[C@H](Nc4ncccn4)CC3)CC2)cc1,
8.13,7.27,7.80,c1ccc(N2CCN(CCC[C@H]3CC[C@H](Nc4ncccn4)CC3)CC2)cc1,
8.28,7.86,8.46,c1ccc(N2CCN(CC[C@H]3CC[C@H](Nc4ncccn4)CC3)CC2)cc1,Decrease (Rattus norvegicus [8]): 42%; ED50 (Mus musculus): 0.4 mg/kg; ED50 [9]: 0.28 mg/kg; ED50 (Rattus norvegicus [10]): 4.6 mg/kg; Decrease (Rattus norvegicus [11]): 50%; pEC50 (D(2) dopamine receptor [3]): 7.54; Control (Rattus norvegicus [4]): 67%; Intrinsic activity (D(2) dopamine receptor [5]): 60%
6.80,6.26,6.33,c1ccc(N2CCN(C3CCC(Nc4ncccn4)CC3)CC2)cc1 (stereo in doubt; 19),
,7.54,,c1ccc(N2CCN(CC[C@H]3CC[C@@H](Nc4ncccn4)CC3)CC2)cc1,
,,5.28,O=C(N[C@H]1CC[C@H](CCN2CCN(c3ccccc3)CC2)CC1)C1CCCCC1,
5.62,6.10,,CCCN(CCC)CC[C@H]1CC[C@H](Nc2ncccn2)CC1,
6.41,7.28,6.80,COc1ccc(N2CCN(CC[C@H]3CC[C@H](Nc4ncccn4)CC3)CC2)cc1,

SMILES,pKi (D(2) dopamine receptor [1]),pKi (D(3) dopamine receptor),pKi [2],other results
Clc1cccc(N2CCN(CC[C@H]3CC[C@H](Nc4ncccn4)CC3)CC2)c1Cl,7.96,8.30,7.12,
COc1ccccc1N1CCN(CC[C@H]2CC[C@H](Nc3ncccn3)CC2)CC1,8.52,7.96,9.30,pIC50 (D(2) dopamine receptor [3]): 8.00; Control (Rattus norvegicus [4]): 173%; Intrinsic activity (D(2) dopamine receptor [5]): 8%; Control [6]: 128%
C1=C(c2ccccc2)CCN(CC[C@H]2CC[C@H](Nc3ncccn3)CC2)C1,8.33,8.43,8.41,
c1ccc(N2CCN(CC[C@H]3CC[C@H](Nc4ncccn4)CC3)CC2)nc1,,7.59,8.66,Control (Rattus norvegicus [7]): 159%; Intrinsic activity (D(2) dopamine receptor [5]): 41%
c1cnc(N[C@H]2CC[C@H](CCN3CCN(c4nccs4)CC3)CC2)nc1,7.34,,8.00,
c1cnc(N[C@H]2CC[C@H](CCN3CCN(c4cccnc4)CC3)CC2)nc1,7.60,8.33,8.02,
FC(F)(F)c1cccc(N2CCN(CC[C@H]3CC[C@H](Nc4ncccn4)CC3)CC2)c1,8.22,7.49,7.89,
c1ccc(N2CCN(CC[C@H]3CC[C@H](Nc4ncnc5ccccc45)CC3)CC2)cc1,8.49,10.70,7.13,
